Results on 10 molecules are retold here after ChEMBL document CHEMBL1201862, “PubChem BioAssay data set” (2004).

Test systems include EKVX; HL-60; HOP-92; MDA-MB-435; MOLT-4; NCI-H226; NCI-H460; OVCAR-3; OVCAR-4; PC-3; SF-268; SK-MEL-2; SK-MEL-5; SK-OV-3; SNB-75; SR; SW-620; T47D; TK-10.
Holding throughout (test): growth of human tumour cells (NCI), 48 h

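96-well plates; 48 h exposure; 5 concentrations. Endpoints by linear interpolation between flanking doses. Not reached: highest tested concentration assigned. Here, GI50 denotes the concentration required for 50% inhibition of growth.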 The source made the active and inactive calls. No stated cut-off is given here; in the data, active = GI50 up to about 1.1 µM and inactive = higher. Some results are limits rather than exact numbers.

Take `CC1=NN(C(=O)c2ccncc2)C(=O)C1`: the GI50 in the assay with EKVX was > 100 µM (inactive); in the assay on HL-60 it was > 100 µM (inactive); with HOP-92 it was > 100 µM (inactive); with MDA-MB-435 it was > 100 µM (inactive); in the assay with MOLT-4, 89.9 µM (inactive); in the assay with NCI-H226, > 100 µM (inactive). Also, the GI50 in the assay on NCI-H460, in the assay with OVCAR-3, with OVCAR-4, with PC-3, in the assay with SF-268 and in the assay with SK-MEL-2 was > 100 µM (inactive) in each case. Also, the GI50 with SK-MEL-5, in the assay on SK-OV-3, in the assay with SNB-75, in the assay on SR, in the assay with SW-620 and in the assay with T47D was > 100 µM (inactive) throughout. Also, in the assay with TK-10, the GI50 was > 100 µM (inactive).
With `CC(C)[C@]12O[C@H]1[C@@H]1O[C@@]13[C@@]1(C)CCC4=C(COC4=O)[C@@H]1C[C@@H]1O[C@@]13C2=O` [TRIPTONIDE], the GI50 in the assay on EKVX was 0.0287 µM (active); in the assay with HL-60 it was < 0.01 µM (active); with HOP-92, 0.0237 µM (active); in the assay on MDA-MB-435 it was 0.0103 µM (active); with MOLT-4, < 0.01 µM (active); with NCI-H226, < 0.0193 µM (active). Further, the GI50 in the assay with NCI-H460 is < 0.01 µM (active); in the assay with OVCAR-3, < 0.0133 µM (active); with OVCAR-4, < 0.01 µM (active); in the assay on PC-3 it was 0.0227 µM (active); with SF-268, 0.0229 µM (active); in the assay on SK-MEL-2, 0.0119 µM (active). The GI50 in the assay with SK-MEL-5 is 0.0141 µM (active); with SK-OV-3, 0.0397 µM (active); in the assay on SNB-75 it was 0.0108 µM (active); in the assay with SR it was < 0.01 µM (active); with T47D, 0.0238 µM (active); with TK-10, 0.0261 µM (active).
On to `c1ccc(-c2nn(-c3ccccc3)[n+](-c3ccccc3)n2)cc1` [TETRAZOLIUM RED], for which the GI50 in the assay with EKVX was 2.4 µM (inactive); with HL-60, 0.184 µM (active); in the assay on HOP-92, 24.1 µM (inactive); in the assay with MDA-MB-435, 11.1 µM (inactive); with MOLT-4, 19.1 µM (inactive); in the assay on NCI-H226, 24.5 µM (inactive). Further, the GI50 was 21.1 µM (inactive) in the assay on NCI-H460; 0.191 µM (active) in the assay with OVCAR-3; 2.01 µM (inactive) in the assay with OVCAR-4; 3.83 µM (inactive) in the assay on PC-3; 14.5 µM (inactive) with SF-268; 36.8 µM (inactive) with SK-MEL-2. Further, the GI50 was 3.49 µM (inactive) with SK-MEL-5; > 100 µM (inactive) in the assay on SK-OV-3; > 67.6 µM (inactive) in the assay on SNB-75; 3.37 µM (inactive) with SR; 16.1 µM (inactive) in the assay on SW-620; > 100 µM (inactive) with T47D. Further, in the assay on TK-10, the GI50 is 43 µM (inactive).
On to `CCO/C=N/C1=C(C#N)SC2=N/C(=C\c3ccccc3)C(=O)N21`, for which the GI50 with EKVX was 77.3 µM (inactive); in the assay on HL-60, 23.9 µM (inactive); in the assay on HOP-92 it was > 100 µM (inactive); with MDA-MB-435, > 100 µM (inactive); in the assay on MOLT-4 it was 31.7 µM (inactive); in the assay on NCI-H226, 97.3 µM (inactive). For the same molecule, the GI50 is > 100 µM (inactive) in the assay with NCI-H460; > 100 µM (inactive) with OVCAR-3; 57.9 µM (inactive) in the assay on OVCAR-4; > 100 µM (inactive) with PC-3; > 100 µM (inactive) in the assay on SF-268; > 100 µM (inactive) with SK-MEL-2. The GI50 with SK-MEL-5 is > 100 µM (inactive); in the assay on SK-OV-3, > 100 µM (inactive); in the assay on SNB-75, > 81.3 µM (inactive); in the assay on SR, 39.4 µM (inactive); in the assay with SW-620, > 100 µM (inactive); with T47D it was 86.9 µM (inactive). In the assay with TK-10, the GI50 was > 89.1 µM (inactive).
Regarding `COc1ccc(C2CCc3nc4nc(N)nc(N)c4cc3C2)cc1` (stereo not drawn), the GI50 with EKVX is 41.2 µM (inactive); with HL-60, 54 µM (inactive); with HOP-92, 1.2 µM (inactive); with MDA-MB-435 it was 27.4 µM (inactive); with MOLT-4 it was 22.1 µM (inactive); in the assay with NCI-H226 it was 49.4 µM (inactive). Also, the GI50 in the assay with NCI-H460 is 40.6 µM (inactive); in the assay on OVCAR-3, 17.3 µM (inactive); in the assay with OVCAR-4, 22.8 µM (inactive); with PC-3, 85.1 µM (inactive); with SF-268, 15.8 µM (inactive); with SK-MEL-2 it was 18.9 µM (inactive). Moreover, the GI50 with SK-MEL-5 is 62.5 µM (inactive); with SK-OV-3, 10.1 µM (inactive); in the assay with SNB-75, 1.67 µM (inactive); with SR, 24.3 µM (inactive); with SW-620, 36.6 µM (inactive); in the assay with T47D, 21 µM (inactive). Besides, the GI50 with TK-10 is 8.34 µM (inactive).
With `COc1ccc(N/N=C2\C3=C(CCC(C)(C)O3)C(=O)c3ccccc32)cc1`, the GI50 in the assay with EKVX was 18.1 µM (inactive); in the assay on HL-60, 15.3 µM (inactive); in the assay with HOP-92, 21.1 µM (inactive); in the assay on MDA-MB-435 it was 17.1 µM (inactive); with MOLT-4 it was 18.1 µM (inactive); in the assay on NCI-H226, 52.6 µM (inactive). Also, the GI50 was 14.2 µM (inactive) in the assay with NCI-H460; 14.9 µM (inactive) with OVCAR-3; 18.3 µM (inactive) in the assay on OVCAR-4; 21.9 µM (inactive) with PC-3; 15.3 µM (inactive) in the assay with SF-268; 21.8 µM (inactive) in the assay with SK-MEL-2. Moreover, the GI50 in the assay on SK-MEL-5 was 12.2 µM (inactive); with SK-OV-3, 37 µM (inactive); in the assay with SNB-75, 19 µM (inactive); in the assay on SR it was 12.6 µM (inactive); in the assay with SW-620, 34 µM (inactive); in the assay on T47D, 2.51 µM (inactive). Also, in the assay on TK-10, the GI50 was 20.5 µM (inactive).
`CC(C)(C)OC(=O)CC(NC(=O)OC(C)(C)C)C(=O)N[C@@H]1CCCC[C@H]1C(=O)OCc1ccccc1` (stereo partly drawn): the GI50 with EKVX is 62.2 µM (inactive); with HL-60, 24.7 µM (inactive); in the assay with HOP-92, 53.2 µM (inactive); with MDA-MB-435, 29.6 µM (inactive); with MOLT-4 it was 17 µM (inactive); in the assay on NCI-H226 it was 26.4 µM (inactive). The GI50 in the assay on NCI-H460 was 29.6 µM (inactive); in the assay with OVCAR-3, 28.9 µM (inactive); with OVCAR-4, 45.2 µM (inactive); in the assay on PC-3 it was 21.4 µM (inactive); in the assay on SF-268 it was 77.3 µM (inactive); in the assay with SK-MEL-2, 32.3 µM (inactive). Besides, the GI50 with SK-MEL-5 was 12.1 µM (inactive); in the assay on SK-OV-3 it was 19.2 µM (inactive); in the assay with SNB-75, 23.1 µM (inactive); with SR it was 29.2 µM (inactive); in the assay on SW-620 it was 37.5 µM (inactive); with T47D, 22.3 µM (inactive). Besides, the GI50 with TK-10 is 17.8 µM (inactive).
In the case of `O=C(CSc1ncccn1)N/N=C/c1ccccc1OCc1ccccc1`, the GI50 in the assay with EKVX was 27.9 µM (inactive); in the assay on HL-60, 21.1 µM (inactive); in the assay with HOP-92, 16.9 µM (inactive); in the assay on MDA-MB-435, 4.33 µM (inactive); with MOLT-4, 20.2 µM (inactive); in the assay on NCI-H226 it was 20.6 µM (inactive). The GI50 in the assay with NCI-H460 was 30.1 µM (inactive); in the assay with OVCAR-3, 16.4 µM (inactive); in the assay on OVCAR-4 it was 22.8 µM (inactive); in the assay with PC-3, 28.8 µM (inactive); in the assay with SF-268 it was 43 µM (inactive); in the assay with SK-MEL-2 it was 21.3 µM (inactive). Further, the GI50 is 14.8 µM (inactive) in the assay with SK-MEL-5; 37.6 µM (inactive) with SK-OV-3; 21.5 µM (inactive) in the assay on SNB-75; 4.23 µM (inactive) in the assay on SR; 29.6 µM (inactive) in the assay with SW-620; 24.8 µM (inactive) in the assay with T47D. Further, the GI50 in the assay on TK-10 is 23.4 µM (inactive).
As for `NS(=O)(=O)c1ccc(NC(=O)N/N=C/c2ccccc2O)cc1`, the GI50 is > 100 µM (inactive) in the assay with EKVX; 27.2 µM (inactive) in the assay with HL-60; 94.4 µM (inactive) in the assay with HOP-92; 16.4 µM (inactive) in the assay on MDA-MB-435; 37.7 µM (inactive) with MOLT-4; 66.1 µM (inactive) in the assay with NCI-H226. In addition, the GI50 with NCI-H460 was 67.9 µM (inactive); in the assay with OVCAR-3, 42 µM (inactive); in the assay on OVCAR-4 it was > 100 µM (inactive); in the assay on PC-3, > 100 µM (inactive); with SF-268 it was 49 µM (inactive); in the assay with SK-MEL-2, 42 µM (inactive). Besides, the GI50 was 46.3 µM (inactive) with SK-MEL-5; 81.5 µM (inactive) with SK-OV-3; 56.9 µM (inactive) in the assay with SNB-75; 22.2 µM (inactive) in the assay on SR; 74.3 µM (inactive) in the assay on SW-620; 88.7 µM (inactive) in the assay on T47D. Besides, the GI50 with TK-10 is > 100 µM (inactive).
On to `CCCNC(=O)CCC(C)[C@H]1CCC2C3C(C[C@H](OC(C)=O)[C@@]21C)[C@@]1(C)CCC2(C[C@H]1C[C@H]3OC(C)=O)OOC1(CCC(C)CC1)OO2` (stereo partly drawn), for which the GI50 was 13.6 µM (inactive) in the assay on EKVX; 13.1 µM (inactive) with HL-60; 0.0447 µM (active) with HOP-92; 18.9 µM (inactive) in the assay on MDA-MB-435; 37.7 µM (inactive) with MOLT-4; 55.3 µM (inactive) with NCI-H226. Moreover, the GI50 is 23.5 µM (inactive) in the assay with NCI-H460; 4.78 µM (inactive) with OVCAR-3; 15.8 µM (inactive) in the assay with OVCAR-4; 19.8 µM (inactive) in the assay on PC-3; 20 µM (inactive) in the assay with SF-268; 19.5 µM (inactive) in the assay on SK-MEL-2. Also, the GI50 was 14.6 µM (inactive) in the assay with SK-MEL-5; 60.5 µM (inactive) in the assay with SK-OV-3; 23 µM (inactive) with SNB-75; 9.79 µM (inactive) in the assay on SR; 15.9 µM (inactive) with T47D; 28.7 µM (inactive) in the assay with TK-10.
